Measured values reported in patent publication US20230330067A1, “NOVEL THIOHYDANTOIN DERIVATIVES AND USES THEREOF” (CELROS BIOTECH, priority 2020, published 2023).

What was measured:
[1] = test system: BV2 cells; test: Nox inhibitory effect in BV2 cells (LPS-induced ROS generation, lucigenin chemiluminescence); assay type: cell-based; details: BV2 cells pre-treated 30 minutes, 0-10000 nM, then LPS 200 ng/ml; FIG. 3
Description: BV2 cells were washed with Hank's balanced salt solution (HBSS) and incubated in HBSS at 37° C. for 30 minutes. Then, the cells were treated with the compound (compound of Example 1 or compound of Example 2) at various concentrations (0 nM, 1 nM, 10 nM, 100 nM, 1000 nM, and 10000 nM). After 30 minutes, 200 ng/ml of lipopolysaccharide (LPS) and 200 μM of lucigenin were added to the cells. Lucigenin chemiluminescence was detected at 10 second intervals for 15 minutes using a luminometer (GLOMA, Promega).
Specifically, BV2 cells were pre-treated with Compound (A) of Example 1 or Compound (B) of Example 2 for 30 minutes and generation of reactive oxygen species (ROS) was detected after treatment with LPS (200 ng/ml). Data are expressed as mean ±SD (N=3).

[2] = molecular target: T1, human Nox1 (Homo sapiens, UniProt Q9Y5S8); test: Lucigenin chemiluminescence assay, human Nox1; assay type: biochemical; details: Drosophila membranes expressing hNox1; average of three assays
T1 construct: made in house; host or cells: transgenic Drosophila (UAS-hNox1/UAS-dDuox-RNAi; Da-GAL4/+), membranes from fly homogenate
T1 sequence (Q9Y5S8 1-564): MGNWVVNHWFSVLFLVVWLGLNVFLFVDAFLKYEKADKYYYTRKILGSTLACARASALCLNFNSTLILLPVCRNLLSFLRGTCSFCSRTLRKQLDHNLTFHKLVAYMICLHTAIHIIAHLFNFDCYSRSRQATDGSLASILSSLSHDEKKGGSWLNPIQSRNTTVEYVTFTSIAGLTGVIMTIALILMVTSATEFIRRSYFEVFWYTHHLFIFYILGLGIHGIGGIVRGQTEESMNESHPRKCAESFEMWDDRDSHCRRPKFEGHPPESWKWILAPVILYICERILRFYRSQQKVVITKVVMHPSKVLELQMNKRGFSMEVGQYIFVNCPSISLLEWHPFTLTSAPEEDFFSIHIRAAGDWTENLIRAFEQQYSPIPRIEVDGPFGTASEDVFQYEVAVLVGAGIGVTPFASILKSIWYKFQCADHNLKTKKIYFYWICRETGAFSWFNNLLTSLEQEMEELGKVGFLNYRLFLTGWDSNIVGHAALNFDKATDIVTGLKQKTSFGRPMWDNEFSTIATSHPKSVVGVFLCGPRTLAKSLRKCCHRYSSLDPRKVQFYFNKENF
Excerpt: (§1) Human Nox isozymes were provided from transgenic flies expressing human Nox isozymes under the daughterless (Da)-GAL4 promoter. The genotype of each fly line is shown below. • 1) Human Nox1: UAS-hNox1/UAS-dDuox-RNAi; Da-GAL4/+ • 2) Human Nox2: UAS-hNox2/UAS-dDuox-RNAi; Da-GAL4/+ • 3) Human Nox4: UAS-hNox4/UAS-dDuox-RNAi; Da-GAL4/+
(§2) Transgenic flies were homogenized with PBS containing protease inhibitors (Aprotinin and Leupeptin) to obtain Drosophila membranes of each Nox isozyme. The membranes were incubated with compounds (100 μM, 10 μM, 1 μM, 0.1 μM, 0.01 μM, 0.001 μM, and 0 μM) for 10 min on a shaker. After that, a mixture of 500 μM NADPH (beta-nicotinamide adenine dinucleotide 2′-phosphate reduced tetrasodium salt hydrate; Sigma-Aldrich) and 400 μM lucigenin (N,N′-dimethyl-9,9′-biacridinium dinitrate; Sigma-Aldrich) in 1X HEPES (4-(2-hydroxyethyl)-1-piperazineethanesulfonic acid) buffer was added to the membrane. Lucigenin chemiluminescence was detected at 1 minute intervals for 10 min using a multimode microplate reader (SpectraMax iD3, Molecular Devices). IC50 values were calculated with Graph-Pad Prism 5 (GraphPad Software).
(§3) Lucigenin chemiluminescence assays were performed with Drosophila membranes expressing hNox1, hNox2 and hNox4. The assay was repeated three times and the average of the IC50 values was determined.

[3] = test system: PFF-induced Parkinson's disease; test: PFF-induced Parkinson's disease mice; assay type: in vivo, C57BL/6 mice; details: 10 mg/kg intraperitoneal daily for 3 months
Description: In order to develop preformed fibrils (PFF)-induced Parkinson's disease, 8-12 week old C57BL/6 mice were stereotaxically inoculated with 5 μg of PFF into the right dorsal striatum (AP+0.2 mm, […], DV 2.6 mm). Five months post single inoculation of PFF, animals were intraperitoneally injected with the compound of Example 2 at 10 mg/kg daily for 3 months. […] The maximum force of the mouse forelimb was recorded with a grip strength meter. The single inoculation of PFF impaired the grip strength of the forelimb.

[4] = molecular target: T2, human Nox2 (Homo sapiens, UniProt P04839); test: Lucigenin chemiluminescence assay, human Nox2; assay type: biochemical; details: Drosophila membranes expressing hNox2; average of three assays
T2 construct: made in house; host or cells: transgenic Drosophila (UAS-hNox2/UAS-dDuox-RNAi; Da-GAL4/+), membranes from fly homogenate
T2 sequence (P04839 2-570 limits assumed): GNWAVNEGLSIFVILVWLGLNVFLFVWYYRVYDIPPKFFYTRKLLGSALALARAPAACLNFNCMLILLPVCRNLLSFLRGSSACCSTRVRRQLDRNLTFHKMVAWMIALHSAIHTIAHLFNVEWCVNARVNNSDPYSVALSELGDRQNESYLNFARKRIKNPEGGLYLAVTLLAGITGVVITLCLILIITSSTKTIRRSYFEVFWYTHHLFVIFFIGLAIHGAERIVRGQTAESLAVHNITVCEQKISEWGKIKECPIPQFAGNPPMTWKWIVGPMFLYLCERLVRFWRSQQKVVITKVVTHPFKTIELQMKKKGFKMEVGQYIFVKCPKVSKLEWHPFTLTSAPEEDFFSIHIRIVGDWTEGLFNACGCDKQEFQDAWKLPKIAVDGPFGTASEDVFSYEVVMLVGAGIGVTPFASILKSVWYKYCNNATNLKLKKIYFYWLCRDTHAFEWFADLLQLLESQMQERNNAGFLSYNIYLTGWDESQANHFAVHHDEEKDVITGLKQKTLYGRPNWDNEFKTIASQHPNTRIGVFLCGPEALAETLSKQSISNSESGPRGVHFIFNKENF
Excerpt: as §1, §2, §3

[5] = molecular target: T3, human Nox4 (Homo sapiens, UniProt Q9NPH5); test: Lucigenin chemiluminescence assay, human Nox4; assay type: biochemical; details: Drosophila membranes expressing hNox4; average of three assays
T3 construct: made in house; host or cells: transgenic Drosophila (UAS-hNox4/UAS-dDuox-RNAi; Da-GAL4/+), membranes from fly homogenate
T3 sequence (Q9NPH5 1-578): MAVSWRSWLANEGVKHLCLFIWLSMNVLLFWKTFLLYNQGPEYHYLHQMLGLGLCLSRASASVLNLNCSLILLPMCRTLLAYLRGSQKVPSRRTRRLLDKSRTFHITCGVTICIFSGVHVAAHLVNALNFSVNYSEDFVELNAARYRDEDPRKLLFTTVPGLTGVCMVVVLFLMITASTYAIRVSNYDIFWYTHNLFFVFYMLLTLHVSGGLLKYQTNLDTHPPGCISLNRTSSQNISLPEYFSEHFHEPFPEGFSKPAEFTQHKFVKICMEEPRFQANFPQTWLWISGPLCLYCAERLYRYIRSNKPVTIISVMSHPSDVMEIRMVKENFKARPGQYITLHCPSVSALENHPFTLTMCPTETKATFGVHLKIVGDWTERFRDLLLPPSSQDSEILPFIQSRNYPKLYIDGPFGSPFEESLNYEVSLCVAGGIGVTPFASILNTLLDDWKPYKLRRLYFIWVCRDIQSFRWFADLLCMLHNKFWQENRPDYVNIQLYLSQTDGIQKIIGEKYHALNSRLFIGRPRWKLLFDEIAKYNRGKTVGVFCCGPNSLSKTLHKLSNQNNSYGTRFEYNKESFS
Excerpt: as §1, §2, §3

SMILES | generation of reactive oxygen species (ROS) [1] | IC50 [2] [µM] | amount of α-synuclein in the hippocampus (HP CA1, HP CA3) ([3]; five months post PFF inoculation, FIG. 11) | astrocyte pathology (GFAP immuno-positive astrocytes) in the prefrontal cortex (Pfcx) ([3]; FIG. 12) | microglia pathology (Iba1 immunopositive activated microglia) in Pfcx and HP CA3 ([3]; FIG. 13) | neuromuscular function (forelimb grip strength) ([3]; FIG. 14) | IC50 [4] [µM] | IC50 [5] [µM]
CC(C)CN1C(=O)C(=Cc2ccc(N(C)CCO)cc2)N(C)C1=S (mixture of isomers) [Example 2, 5-(4-((2-hydroxyethyl)(methyl)amino)benzylidene)-3-isobutyl-1-methyl-2-thioxoimidazolidin-4-one] | significant inhibition of ROS generation | 1.49 | significantly decreased | reduced GFAP immuno-positive astrocytes | reduced Ibal immunopositive activated microglia | improved the grip strength | 1.84 | 1.72
COc1cc(N(C)CCO)ccc1/C=C1\C(=O)N(C2CCCCC2)C(=S)N1C [Example 3, (E)-3-cyclohexyl-5-(4-((2-hydroxyethyl)(methyl)amino)-2-methoxybenzylidene)-1-methyl-2-thioxoimidazolidin-4-one] |  |  |  |  |  |  | 1.58 | 1.72
CN1C(=S)N(C2CCCCC2)C(=O)/C1=C\c1ccc(N(C)CCO)cc1O [Example 4, (E)-3-cyclohexyl-5-(2-hydroxy-4-((2-hydroxyethyl)(methyl)amino)benzylidene)-1-methyl-2-thioxoimidazolidin-4-one] |  |  |  |  |  |  | 0.52 | 1.4
CN1C(=S)N(Cc2ccccc2)C(=O)/C1=C\c1ccc(N(C)CCCO)cc1 [Example 5, (E)-3-benzyl-5-(4-((3-hydroxypropyl)(methyl)amino)benzylidene)-1-methyl-2-thioxoimidazolidin-4-one] |  |  |  |  |  |  | 1.35 | 0.907
CN1C(=S)N(CCc2ccccc2)C(=O)/C1=C\c1ccc(N(C)CCO)cc1 [Example 6, (E)-5-(4-((2-hydroxyethyl)(methyl)amino)benzylidene)-1-methyl-3-phenethyl-2-thioxoimidazolidin-4-one] |  |  |  |  |  |  | 1.96 | 1.8
CN1C(=S)N(Cc2ccccc2)C(=O)/C1=C\c1ccc(N(C)CCO)cc1O [Example 7, (E)-3-benzyl-5-(2-hydroxy-4-((2-hydroxyethyl)(methyl)amino)benzylidene)-1-methyl-2-thioxoimidazolidin-4-one] |  |  |  |  |  |  | 0.773 | 0.665
COc1cc(N(C)CCCO)ccc1/C=C1\C(=O)N(Cc2ccccc2)C(=S)N1C [Example 8, (E)-3-benzyl-5-(4-((3-hydroxypropyl)(methyl)amino)-2-methoxybenzylidene)-1-methyl-2-thioxoimidazolidin-4-one] |  |  |  |  |  |  | 1.9 | 0.761
